Data taken from PubChem BioAssay AID180 (DTP/NCI, 2004).
Values joined by “and” are separate entries in the source; they are usually repeats but may differ in a detail not shown here. Equal values may be shown once.

Tested on: BDF1 mice, Adenocarcinoma 755 s.c., tumor weight T/C
Assay: NCI In Vivo Anticancer Drug Screen. Data for tumor model Adenocarcinoma 755 (subcutaneous) in B6D2F1 (BDF1) mice
Settings: endpoint: mean tumor weight, higher = larger tumour
Procedure, shortened: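 Readout: T/C, i.e. treated-group measurement over vehicle-control measurement. Endpoint is survival or tumor size in tumor-bearing mice given compound.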

For `C=CCSc1ncnc2c1ncn2C1OC(CO)C(O)C1O` (centres undefined), the T/C (dose: 1.0 mg/kg/injection, schedule: Q01DX011 (ip), vehicle: saline) was 63 % of control, the T/C (dose: 1.6 mg/kg/injection, schedule: Q01DX011 (ip), vehicle: saline) was 82 % of control and the T/C (dose: 2.0 mg/kg/injection, schedule: Q01DX011 (ip), vehicle: saline) was 112 % of control. The T/C (dose: 3.2 mg/kg/injection, schedule: Q01DX011 (ip), vehicle: saline) was 119 % of control, the T/C (dose: 4.0 mg/kg/injection, schedule: Q01DX011 (ip), vehicle: saline) was 50 % of control and the T/C (dose: 5.0 mg/kg/injection, schedule: Q01DX011 (ip), vehicle: saline) was 75 % of control. For the same compound, the T/C (dose: 6.3 mg/kg/injection, schedule: Q01DX011 (ip), vehicle: saline) was 40 % of control, the T/C (dose: 7.0 mg/kg/injection, schedule: Q01DX011 (ip), vehicle: saline) was 16 % of control and the T/C (dose: 10.0 mg/kg/injection, schedule: Q01DX011 (ip), vehicle: saline) was 38 % of control. The T/C (dose: 12.5 mg/kg/injection, schedule: Q01DX011 (ip), vehicle: saline) was 42 % of control, the T/C (dose: 13.0 mg/kg/injection, schedule: Q01DX011 (ip), vehicle: saline) was 2 % of control and the T/C (dose: 20.0 mg/kg/injection, schedule: Q01DX011 (ip), vehicle: saline) was 8 % of control. The T/C (dose: 25.0 mg/kg/injection, schedule: Q01DX011 (ip), vehicle: saline) was 1 % of control and 19 % of control, the T/C (dose: 40.0 mg/kg/injection, schedule: Q01DX011 (ip), vehicle: saline) was 1 % of control and the T/C (dose: 50.0 mg/kg/injection, schedule: Q01DX011 (ip), vehicle: saline) was 18 % of control. The T/C (dose: 80.0 mg/kg/injection, schedule: Q01DX011 (ip), vehicle: saline) was 1 % of control and the T/C (dose: 100.0 mg/kg/injection, schedule: Q01DX011 (ip), vehicle: saline) was 11 % of control.
With `CC(=O)OCC(=O)[C@@]1(O)CC[C@H]2[C@@H]3CCC4=CC(=O)[C@H](C)C[C@]4(C)[C@@]3(F)[C@@H](O)C[C@@]21C` the T/C (dose: 3.75 mg/kg/injection, schedule: Q01DX011 (sc), vehicle: steriod suspending solution) was 65 % of control, the T/C (dose: 7.5 mg/kg/injection, schedule: Q01DX011 (sc), vehicle: steriod suspending solution) was 29 % of control and the T/C (dose: 15.0 mg/kg/injection, schedule: Q01DX011 (sc), vehicle: steriod suspending solution) was 20 % of control. The T/C (dose: 30.0 mg/kg/injection, schedule: Q01DX011 (sc), vehicle: steriod suspending solution) was 9 % of control.
In the case of `CCCSc1nc(N)nc2c1ncn2C1OC(CO)C(O)C1O` (centres undefined), the T/C (dose: 3.1 mg/kg/injection, schedule: Q01DX011 (ip), vehicle: methylcellulose (MC)) is reported as 33 % of control, the T/C (dose: 6.25 mg/kg/injection, schedule: Q01DX011 (ip), vehicle: methylcellulose (MC)) is reported as 4 % of control and the T/C (dose: 12.5 mg/kg/injection, schedule: Q01DX011 (ip), vehicle: methylcellulose (MC)) is reported as 2 % of control.
For `Cc1cc2nc3c(=O)[nH]c(=O)nc-3n(CCO)c2cc1C`, the T/C (dose: 800.0 mg/kg/injection, schedule: Q01DX011 (ip), vehicle: methylcellulose (MC)) was 98 % of control and the T/C (dose: 1000.0 mg/kg/injection, schedule: Q01DX011 (ip), vehicle: methylcellulose (MC)) was 95 % of control.
With `C[C@]12CC[C@H](O)C[C@H]1CC[C@@H]1[C@@H]2CC[C@]2(C)[C@@H](C3=CC(=O)OC3)CC[C@]12O` the T/C (dose: 5.0 mg/kg/injection, schedule: Q01DX011 (ip), vehicle: carboxymethylcellulose (CMC)) was 72 % of control, the T/C (dose: 10.0 mg/kg/injection, schedule: Q01DX011 (ip), vehicle: carboxymethylcellulose (CMC)) was 67 % of control and the T/C (dose: 25.0 mg/kg/injection, schedule: Q01DX011 (ip), vehicle: carboxymethylcellulose (CMC)) was 49 % of control.
With `O=C(Nc1ccc(C2=NCCCN2)cc1)c1ccc(NC(=O)c2ccc(C3=NCCCN3)cc2)cc1` the T/C (dose: 2.0 mg/kg/injection, schedule: Q01DX011 (ip), vehicle: carboxymethylcellulose (CMC)) was 89 % of control, the T/C (dose: 4.0 mg/kg/injection, schedule: Q01DX011 (ip), vehicle: carboxymethylcellulose (CMC)) was 63 % of control and the T/C (dose: 8.0 mg/kg/injection, schedule: Q01DX011 (ip), vehicle: carboxymethylcellulose (CMC)) was 53 % of control.
With `Nc1nc(=S)cc(Nc2cccc(Cl)c2)[nH]1` the T/C (dose: 15.0 mg/kg/injection, schedule: Q01DX011 (ip), vehicle: methylcellulose (MC)) was 91 % of control, the T/C (dose: 62.0 mg/kg/injection, schedule: Q01DX011 (ip), vehicle: methylcellulose (MC)) was 87 % of control and the T/C (dose: 125.0 mg/kg/injection, schedule: Q01DX011 (ip), vehicle: methylcellulose (MC)) was 51 % of control.
With `Nc1nc(SCc2ccccc2Cl)c2ncn(C3OC(CO)C(O)C3O)c2n1` (centres undefined) the T/C (dose: 0.85 mg/kg/injection, schedule: Q01DX011 (ip), vehicle: methylcellulose (MC)) was 69 % of control, the T/C (dose: 1.7 mg/kg/injection, schedule: Q01DX011 (ip), vehicle: methylcellulose (MC)) was 22 % of control and the T/C (dose: 3.4 mg/kg/injection, schedule: Q01DX011 (ip), vehicle: methylcellulose (MC)) was 26 % of control. The T/C (dose: 6.75 mg/kg/injection, schedule: Q01DX011 (ip), vehicle: methylcellulose (MC)) was 4 % of control.
